Assay results taken from article PMC9200282, “GPR15L is an epithelial inflammation-derived pruritogen” (Science Advances, 2022).

How the values were obtained:
[1] = system: mast cell; settings: through MRGPRs; cited from earlier work
From the text: In particular, MRGPRX2 and the mouse ortholog Mrgprb2 are receptors for many cationic molecules ([22]–[25]). Activation of MRGPRs on mast cells can cause immunoglobulin E–independent allergic reactions (pseudo-allergy) including extravasation, itch, and pain ([22], [26]). Some human and tick β-defensins can activate not only MRGPRX2/Mrgprb2 but also MRGPRX1/Mrgprc11, which are expressed on sensory neurons ([27]).

[2] = system: DRG neurons; test: Calcium imaging of dissociated DRG neurons expressing GCaMP6f; type: cell-based, mouse; settings: chloroquine 100 μM, histamine 100 μM, capsaicin 10 μM, sequential challenge
Description: Primary cultures of DRG neurons were generated from C57BL/6N mice as described previously ([65]). […] Imaging was performed with an ORCA-Flash 4.0 […] digital complementary metal-oxide semiconductor camera (Hamamatsu, Bridgewater, NJ) at 1 Hz. Fluorescence intensity in hand-drawn regions of interest was extracted using HCImage (Hamamatsu) and plotted against time. The R package […] was used to generate a heatmap plot to visualize fluorescence signals in all the neurons.

[3] = system: Mrgpra3 DRG neurons; test: Whole-cell patch clamp of Mrgpra3-Cre-eGFP DRG neurons; type: cell-based, mouse; settings: chloroquine 100 μM, pH 7.4
Description: Whole-cell patch clamp was performed on Mrgrpa3-Cre-eGFP neurons as previously described ([67]). Briefly, DRG neurons collected from Mrgpra3-Cre-eGFP mice were cultured on coverslips for 48 to 72 hours. Whole-cell current clamp recordings were performed on dissociated DRG neurons expressing eGFP. Data were recorded with an Axon 700B amplifier and pCLAMP 11 software (Molecular Devices, Sunnyvale). Pipette electrodes were pulled with P-97 microelectrode puller (Sutter Instrument) from borosilicate glass (World Precision Instruments Inc.) with resistances of 2 to 4 megohms. The extracellular solution contained 140 mM NaCl, 4 mM KCl, 2 mM CaCl2, 1 mM MgCl2, 10 mM Hepes, and 10 mM glucose with a pH of 7.4 and an osmolality of 300 mosm/kg. The pipette solution contained 140 mM KCl, 1 mM MgCl2, 1 mM EGTA, 10 mM Hepes, 3 mM adenosine 5′-triphosphate, and 0.5 mM guanosine 5′-triphosphate with a pH of 7.4 and an osmolality of 300 mosm/kg.

Molecule | mast cell degranulation [1] | response of Gpr15l-responsive DRG neurons to other pruritogens/capsaicin [2] | neurons firing action potentials [3]
LL-37: cationic antimicrobial peptide, cathelicidin (LLGDFFRKSKEKIGKEFKRIVQRIKDFLRNLVPRTES; Antibacterial peptide LL-37; UniProt P49913 134-170, looked up) | can cause mast cell degranulation |  | 
COc1cc(CNC(=O)CCCC/C=C/C(C)C)ccc1O [capsaicin] |  | The majority of these neurons also responded | 
NCCc1c[nH]cn1 [histamine] |  | The majority of these neurons also responded | 
CCN(CC)CCCC(C)Nc1ccnc2cc(Cl)ccc12 (centres unmarked) [chloroquine] |  | The majority of these neurons also responded | 7/8
